Data reported in ChEMBL document CHEMBL1201862, “PubChem BioAssay data set” (2004).
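Interpolation was linear, between the two tested concentrations surrounding the appropriate level; five concentrations were tested over 48 hours in 96-well plates. Here, GI50 denotes the concentration required for 50% inhibition of growth.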 Active and inactive are the calls of the source. No stated cut-off is given here; in the data, active = GI50 up to about 1.1 µM and inactive = higher.

Columns and labels:
Test in all cases: NCI tumour cell line growth inhibition, 48 h
SK-OV-3 = test system: SK-OV-3
SNB-19 = test system: SNB-19
K562 = test system: K562
U-251 = test system: U-251
OVCAR-5 = test system: OVCAR-5
SF-295 = test system: SF-295
T47D = test system: T47D
786-0 = test system: 786-0
OVCAR-3 = test system: OVCAR-3
HOP-62 = test system: HOP-62
NCI/ADR-RES = test system: NCI/ADR-RES
SF-268 = test system: SF-268
HOP-92 = test system: HOP-92
RXF 393 = test system: RXF 393
HCT-116 = test system: HCT-116
M14 = test system: M14

Measured: GI50

c1ccc(CCN2CCOCC2)nc1
inactive: SK-OV-3 > 100 µM | SNB-19 > 100 µM | K562 > 100 µM | U-251 > 100 µM | OVCAR-5 > 100 µM | SF-295 > 100 µM | T47D > 100 µM | 786-0 > 100 µM | OVCAR-3 > 100 µM | HOP-62 > 100 µM | NCI/ADR-RES > 100 µM | SF-268 > 100 µM | HOP-92 > 100 µM | RXF 393 > 100 µM | HCT-116 > 100 µM | M14 > 100 µM

Cn1c(=O)cc(NCCc2ccccc2)[nH]c1=O
inactive: SK-OV-3 53.6 µM | SNB-19 77.8 µM | K562 19.1 µM | U-251 61.1 µM | OVCAR-5 > 100 µM | SF-295 20.9 µM | T47D 54.5 µM | 786-0 41 µM | OVCAR-3 16.1 µM | HOP-62 30 µM | NCI/ADR-RES 24.7 µM | SF-268 > 100 µM | HOP-92 > 100 µM | RXF 393 57.8 µM | HCT-116 34.2 µM | M14 27.8 µM

COC(=O)c1cc(=O)nc2sc3cccc(C)c3n12
inactive: SK-OV-3 > 100 µM | SNB-19 46.3 µM | K562 30.3 µM | U-251 22.2 µM | OVCAR-5 38 µM | SF-295 67 µM | T47D 37.8 µM | 786-0 21.3 µM | OVCAR-3 23 µM | HOP-62 > 100 µM | NCI/ADR-RES > 100 µM | SF-268 61.1 µM | HOP-92 30.2 µM | RXF 393 56.1 µM | HCT-116 28.8 µM | M14 33.1 µM

C=C(C)[C@@H](C(=O)OC)N1C(=O)c2ccccc2C1=O
inactive: SK-OV-3 > 100 µM | SNB-19 > 100 µM | K562 > 100 µM | U-251 > 100 µM | OVCAR-5 > 100 µM | SF-295 > 100 µM | T47D > 100 µM | 786-0 > 100 µM | OVCAR-3 > 100 µM | HOP-62 > 100 µM | NCI/ADR-RES > 100 µM | SF-268 > 100 µM | HOP-92 > 100 µM | RXF 393 > 100 µM | HCT-116 > 100 µM | M14 > 100 µM

Cc1ccc(NC(=O)c2ccc(OP(=O)(O)Nc3ccc(C)cc3)cc2)cc1
inactive: SK-OV-3 > 100 µM | SNB-19 > 100 µM | K562 > 100 µM | U-251 > 100 µM | OVCAR-5 > 100 µM | SF-295 > 100 µM | T47D > 100 µM | 786-0 > 100 µM | OVCAR-3 > 100 µM | HOP-62 > 100 µM | NCI/ADR-RES > 100 µM | SF-268 > 100 µM | HOP-92 > 100 µM | RXF 393 50.7 µM | HCT-116 > 100 µM | M14 64.4 µM
